Entries after “also recorded” stand apart in the source; their conditions may differ.
Experiments:
human NaP2b (SLC34A2) = molecular target: T1, human NaP2b (SLC34A2) (Homo sapiens, UniProt O95436); test: Cell-based assay of NaP2b activity (33P uptake, transfected HEK293 cells), human NaP2b isoform a; settings: Table E5; HEK293, 33P uptake; dihydrochloride salt
T1 construct: host or cells: HEK293 cells (ATCC), Lipofectamine 2000, transient
T1 sequence (O95436 1-690): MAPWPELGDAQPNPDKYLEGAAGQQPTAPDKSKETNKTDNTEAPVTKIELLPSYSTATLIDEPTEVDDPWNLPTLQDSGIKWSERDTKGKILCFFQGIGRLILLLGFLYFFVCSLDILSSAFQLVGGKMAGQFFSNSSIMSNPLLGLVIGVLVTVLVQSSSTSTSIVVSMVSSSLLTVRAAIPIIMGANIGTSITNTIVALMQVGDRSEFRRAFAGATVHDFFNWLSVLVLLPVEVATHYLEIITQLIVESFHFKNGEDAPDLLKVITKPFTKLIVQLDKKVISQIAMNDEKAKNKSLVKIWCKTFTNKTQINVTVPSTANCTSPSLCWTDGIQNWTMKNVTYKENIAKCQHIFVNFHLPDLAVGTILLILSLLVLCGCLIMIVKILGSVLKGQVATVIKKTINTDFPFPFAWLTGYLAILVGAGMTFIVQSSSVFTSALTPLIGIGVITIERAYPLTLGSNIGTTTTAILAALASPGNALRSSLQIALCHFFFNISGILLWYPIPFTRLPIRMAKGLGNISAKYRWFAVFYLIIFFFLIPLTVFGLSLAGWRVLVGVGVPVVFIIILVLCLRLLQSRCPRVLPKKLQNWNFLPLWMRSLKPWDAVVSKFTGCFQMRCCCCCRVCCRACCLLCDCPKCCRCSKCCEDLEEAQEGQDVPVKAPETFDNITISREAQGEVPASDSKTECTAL
Description: Cell-based assay of NaP2b activity. The rate of phosphate (Pi) uptake into cells was measured using a modification of a literature method (see Mohrmann et al. Am. J Phys. 250(3 pt 1):G323-30, 1986). Briefly, HEK293 cells were transiently transfected with an expression clone encoding either rat or human NaP2b. The next day, transfected cells were treated with a pharmacological agent to minimize endogenous PiT-mediated phosphate transport activity, such that the only remaining sodium-dependent phosphate transport activity is that which was bestowed by introduction of the NaP2b gene. Cells were incubated with radioactive inorganic phosphate in the presence or absence of varying concentrations of test compound. After a short time, cells were washed, harvested, and the amount of hot phosphate taken up in the cells determined by liquid scintillation counting.
HEK293 cells were obtained from the American Type Culture collection and propagated per their instructions. […]
Cells were seeded into 96-well plates at 25,000 cells/well and cultured overnight. […] Cells were lysed by addition of 20 μL 0.1% Tween 80 followed by 100 μL scintillation fluid, and counted using a TopCount (Perkin Elmer). The pIC50 (the negative log of the IC50) values of the test compounds were calculated using GraphPad Prism.

[1] = test system: uremic rat model of CKD featuring vascular calcification; test: Rat model of uremia-associated vascular calcification (5/6 nephrectomy, calcitriol, 0.9% P diet); format: in vivo
Description: Chronic kidney disease (CKD) has multiple pathogenic mechanisms, and advanced CKD is often characterized by disordered mineral metabolism (e.g., hyperphosphatemia, hypercalcemia) and vascular calcification. Studies were thus performed to test the effectiveness of the dihydrochloride salt of Cpd 002 (from Table E4, as the dihydrochloride salt) in a uremic rat model of CKD featuring vascular calcification. This model is characterized by renal insufficiency and regular active Vitamin D3 administration to promote hyperphosphatemia and vascular calcification (see Lopez et al., J. Am. Soc. Nephrol. 17:795-804, 2006). The study utilized Spraque-Dawley rats treated as follows: 5/6th nephrectomy by excision; regular calcitriol administration (active vitamin D3) 80 ng/kg i.p. 3/week; and fed a purified 0.9% P diet (inorganic phosphorus).
Rats were stratified into two experimental groups by serum creatinine levels of 0.8 to 1.5 mg/dl and body weight, fed drug-in-chow with powdered vehicle diet or the same diet with Cpd 002 (0.065 mg/g chow) mixed-in, and monitored for weekly body weight and selected serum parameters, daily clinical observations, and endpoint calcification. The study design is illustrated in FIG. 2.
Selected experimental groups were fed vehicle (n=12) or Cpd 002 (n=12) at enrollment (day 0).

[2] = test system: dietary salt-induced, partial renal ablation model of CKD; test: Dietary salt-induced, partial renal ablation model of CKD in nephrectomized rats; format: in vivo, rat
Description: The effects of Cpd 002 (from Table E4, as the dihydrochloride salt) were tested in a dietary salt-induced, partial renal ablation model of CKD. The study design is illustrated in FIG. 11A (12 rats per group).

[3] = test system: phosphorus and calcium levels in the urine of rats; test: Urinary excretion of phosphate and calcium in rats (16 h overnight urine); format: in vivo, rat
[4] = endpoint day 27, 0.065 mg/g chow, vs vehicle
[5] = endpoint, 0.065 mg/g chow, vs vehicle
[6] = organ weight/body weight, 0.065 mg/g chow, vs vehicle
[7] = relative to vehicle-only control, 0.1-3.0 mg/kg, 16 h urine

`CN1Cc2c(Cl)cc(Cl)cc2[C@H](c2cccc(S(=O)(=O)NCCOCCOCCNC(=O)NCCCCNC(=O)NCCOCCOCCNS(=O)(=O)c3cccc([C@@H]4CN(C)Cc5c(Cl)cc(Cl)cc54)c3)c2)C1` [Cpd 002] was tested, and the “pIC50 Human Nap2B” value (human NaP2b (SLC34A2)) was under 4.5, the endpoint plasma aldosterone ([1]; 0.065 mg/g chow, vs vehicle) was “aldosterone increase” and the plasma creatinine ([1]; endpoint day 27, 0.065 mg/g chow, dihydrochloride salt, vs vehicle) was “reduced plasma creatinine”. For the same compound, the “plasma FGF-23” value [1, 4] was “reduced plasma FGF-23”, the plasma phosphorus [1, 4] was “reduced plasma phosphorus; also recorded: anti-hyperphosphatemic effects” and the “calcium and phosphorus in the stomach (soft tissue calcification)” value [1, 5] was “reduced calcium and phosphorus in the stomach”. The “vascular calcification as aortic mineral content” value [1, 5] was “reduced vascular calcification; also recorded: reduce associated vascular calcification”, the “endpoint heart weight (heart hypertrophy)” value [1, 6] was “lessened; also recorded: reduce both heart hypertrophy and renal hypertrophy” and the “endpoint kidney remnant weight (renal hypertrophy)” value [1, 6] was “lessened; also recorded: reduce both heart hypertrophy and renal hypertrophy”. For the same compound, the moribundity ([1]; treatment group vs vehicle) was “decreased moribundity”, the mortality outcome ([1]; treatment group vs vehicle) was “trend toward improved mortality outcome” and the phosphorus urinary excretion ([2]; FIG. 11B) was “significantly reduced”. The blood pressure ([2]; dihydrochloride salt) was “improved”, the albuminuria ([2]; rat, in vivo) was “improved” and the fluid overload ([2]; rat, in vivo) was “improved”. For the same compound, the heart hypertrophy ([2]; rat, in vivo) was “improved”, the kidney hypertrophy ([2]; rat, in vivo) was “improved” and the urine phosphorus mass ([3]; increasing dosages, relative to 48 mg/kg Renvela) was “significantly reduced”. For the same compound, the urine calcium mass [3, 7] was “reduced” and the urine phosphorus mass [3, 7] was “reduced”.

From patent US20240366589A1, “NHE3-BINDING COMPOUNDS AND METHODS FOR INHIBITING PHOSPHATE TRANSPORT” (Ardelyx, Inc., priority 2013, published 2024)
